Target: recombinant human PKR enzyme (Homo sapiens (Human), UniProt P30613)
Test: Pyruvate kinase (PKR) activity experiment
Assay type: biochemical
Conditions: activation of recombinant human PKR enzyme
Procedure: • 1). A recombinant human PKR enzyme solution was formulated at a concentration of 60 ng/well (a 20 μL reaction system), and 5 μL of the solution was added into each well of a black transparent bottom 384-well plate. • 2). Compound solutions were formulated at different concentrations, with the final concentrations of 1000/300/100 nM (containing 1% DMSO). Each 5 μL of the compound solution was added into the plate in item 3.1 and mixed well. The plate was incubated at room temperature for 10 min. • 3). A reaction system was formulated according to the instructions of a kit (as shown in the table below), and 10 μL of the reaction system was added into each well of the 384-well plate, and mixed uniformly with the solution in item 3.2.
• 4). The 384-well plate was placed on a microplate reader to detect the fluorescence value at 540/590 nm, where the value was read every 2 minutes and the detection was conducted continuously for 1 hour. • 5). The Slope value within the detection time was calculated, and the 0.1% DMSO well was used as a control well to calculate a compound activation rate.
[formula] • 6). Fitting dose-effect curve
With the log value of the compound concentration as the X axis and the percentage activation rate as the Y axis, a dose-effect curve was fitted with the log(agonist) vs. response-variable slope of the analysis software GraphPad Prism 5, and the AC50 value of the activity of each compound against PKR was obtained.

Chain of recombinant human PKR enzyme (P30613 whole entry): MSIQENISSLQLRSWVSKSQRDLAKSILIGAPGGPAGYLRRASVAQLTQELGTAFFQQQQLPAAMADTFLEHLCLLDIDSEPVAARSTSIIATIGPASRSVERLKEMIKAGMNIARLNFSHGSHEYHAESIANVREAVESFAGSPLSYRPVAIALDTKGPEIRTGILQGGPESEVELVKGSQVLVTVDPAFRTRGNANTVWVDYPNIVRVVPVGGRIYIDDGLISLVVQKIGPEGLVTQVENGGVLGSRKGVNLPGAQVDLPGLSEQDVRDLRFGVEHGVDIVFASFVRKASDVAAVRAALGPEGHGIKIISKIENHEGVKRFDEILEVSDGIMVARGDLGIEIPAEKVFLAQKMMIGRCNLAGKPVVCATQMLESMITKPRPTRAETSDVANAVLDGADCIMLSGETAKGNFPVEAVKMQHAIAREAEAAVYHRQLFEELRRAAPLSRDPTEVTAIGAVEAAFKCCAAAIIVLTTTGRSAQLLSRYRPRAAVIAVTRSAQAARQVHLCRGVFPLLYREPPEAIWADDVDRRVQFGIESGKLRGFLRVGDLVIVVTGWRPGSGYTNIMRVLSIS

SMILES | AC50
CN(C)CC(C(=O)N1CC(=C2CN(S(=O)(=O)c3ccc4ncsc4c3)C2)C1)c1ccc(F)c(Cl)c1 (stereo not shown) [Compound 42, 1-(1′-(benzo[d]thiazol-6-ylsulfonyl)-1′,4′-dihydro-2H,2′H-[3,3′-diazetidinylidene]-1(4H)-yl)-2-(3-chloro-4-fluorophenyl)-3-(dimethylamino)propan-1-one] | 300 to 1000 nM
CN1CCN(c2cccc(C(O)C(=O)N3CC(=C4CN(S(=O)(=O)c5ccc6ncsc6c5)C4)C3)c2)CC1 (stereo not shown) [Compound 43, 1-(1′-(benzo[d]thiazol-6-ylsulfonyl)-1′,4′-dihydro-2H,2′H-[3,3′-diazetidinylidene]-1(4H)-yl)-2-hydroxy-2-(3-(4-methylpiperazin-1-yl)phenyl)ethan-1-one] | 300 to 1000 nM
COc1ccc(C(CO)C(=O)N2CC(=C3CN(S(=O)(=O)c4ccc5ncsc5c4)C3)C2)cc1 (stereo not shown) [Compound 44, 1-(1′-(benzo[d]thiazol-6-ylsulfonyl)-1′,4′-dihydro-2H,2′H-[3,3′-diazetidinylidene]-1(4H)-yl)-3-hydroxy-2-(4-methoxyphenyl)propan-1-one] | < 100 nM
Cc1ccc(C(CO)C(=O)N2CC(=C3CN(S(=O)(=O)c4ccc5ncsc5c4)C3)C2)cc1 (stereo not shown) [Compound 45, 1-(1′-(benzo[d]thiazol-6-ylsulfonyl)-1′,4′-dihydro-2H,2′H-[3,3′-diazetidinylidene]-1(4H)-yl)-3-hydroxy-2-(p-tolyl)propan-1-one] | < 100 nM
O=C(C(CO)c1cccc(F)c1)N1CC(=C2CN(S(=O)(=O)c3ccc4ncsc4c3)C2)C1 (stereo not shown) [Compound 46, 1-(1′-(benzo[d]thiazol-6-ylsulfonyl)-1′,4′-dihydro-2H,2′H-[3,3′-diazetidinylidene]-1(4H)-yl)-2-(3-fluorophenyl)-3-hydroxypropan-1-one] | < 100 nM
O=C(C(CO)c1cccnc1)N1CC(=C2CN(S(=O)(=O)c3ccc4ncsc4c3)C2)C1 (stereo not shown) [Compound 48, 1-(1′-(benzo[d]thiazol-6-ylsulfonyl)-1′,4′-dihydro-2H,2′H-[3,3′-diazetidinylidene]-1(4H)-yl)-3-hydroxy-2-(pyridin-3-yl)propan-1-one] | 101 to 300 nM
O=C([C@H](CO)c1ccccc1)N1CC(=C2CN(S(=O)(=O)c3ccc4c(n3)OCCO4)C2)C1 [Compound 49, (S)-1-(1′-((2,3-dihydro-[1,4]dioxino[2,3-b]pyridin-6-yl)sulfonyl)-1′,4′-dihydro-2H,2′H-[3,3′-diazetidinylidene]-1(4H)-yl)-3-hydroxy-2-phenylpropan-1-one] | < 100 nM
O=C([C@@H](CO)c1ccc(F)cc1)N1CC(=C2CN(S(=O)(=O)c3ccc4ncsc4c3)C2)C1 [Compound 51, (R)-1-(1′-(benzo[d]thiazol-6-ylsulfonyl)-1′,4′-dihydro-2H,2′H-[3,3′-diazetidinylidene]-1(4H)-yl)-2-(4-fluorophenyl)-3-hydroxypropan-1-one] | 300 to 1000 nM
O=C([C@H](CO)c1ccc(F)cc1)N1CC(=C2CN(S(=O)(=O)c3ccccn3)C2)C1 [Compound 54, (S)-2-(4-fluorophenyl)-3-hydroxy-1-(1′-(pyridin-2-ylsulfonyl)-1′,4′-dihydro-2H,2′H-[3,3′-diazetidinylidene]-1(4H)-yl)propan-1-one] | < 100 nM
O=C([C@@H](CO)c1ccc(F)cc1)N1CC(=C2CN(S(=O)(=O)c3ccccn3)C2)C1 [Compound 55, (R)-2-(4-fluorophenyl)-3-hydroxy-1-(1′-(pyridin-2-ylsulfonyl)-1′,4′-dihydro-2H,2′H-[3,3′-diazetidinylidene]-1(4H)-yl)propan-1-one] | 300 to 1000 nM
O=C(C(CO)c1ccc(F)c(Cl)c1)N1CC(=C2CN(S(=O)(=O)c3ccccn3)C2)C1 (stereo not shown) [Compound 59, 2-(3-chloro-4-fluorophenyl)-3-hydroxy-1-(1′-(pyridin-2-ylsulfonyl)-1′,4′-dihydro-2H,2′H-[3,3′-diazetidinylidene]-1(4H)-yl)propan-1-one] | 101 to 300 nM
O=C(C(CO)c1ccc(F)c(F)c1)N1CC(=C2CN(S(=O)(=O)c3ccccn3)C2)C1 (stereo not shown) [Compound 61, 2-(3,4-difluorophenyl)-3-hydroxy-1-(1′-(pyridin-2-ylsulfonyl)-1′,4′-dihydro-2H,2′H-[3,3′-diazetidinylidene]-1(4H)-yl)propan-1-one] | 300 to 1000 nM
Cn1cnc2ccc(S(=O)(=O)N3CC(=C4CN(C(=O)[C@H](CO)c5ccccc5)C4)C3)cc21 [Compound 63, (S)-3-hydroxy-1-(1′-((1-methyl-1H-benzimidazol-6-yl)sulfonyl)-1′,4′-dihydro-2H,2′H-[3,3′-diazetidinylidene]-1(4H)-yl)-2-phenylpropan-1-one] | 101 to 300 nM
N#Cc1ccc(S(=O)(=O)N2CC(=C3CN(C(=O)[C@H](CO)c4ccccc4)C3)C2)cc1 [Compound 65, (S)-4-(1′-(3-hydroxy-2-phenylpropionyl)-1′,4′-dihydro-2H,2′H-[3,3′-diazetidinylidene]-1(4H)-ylsulfonyl)benzonitrile] | 101 to 300 nM
O=C([C@H](CO)c1ccccc1)N1CC(=C2CN(S(=O)(=O)c3ccc(Cl)cn3)C2)C1 [Compound 66] | 101 to 300 nM
COc1ccc(S(=O)(=O)N2CC(=C3CN(C(=O)[C@H](CO)c4ccccc4)C3)C2)nc1 [Compound 67, (S)-3-hydroxy-1-(1′-((5-methoxypyridin-2-yl)sulfonyl)-1′,4′-dihydro-2H,2′H-[3,3′-diazetidinylidene]-1(4H)-yl)-2-phenylpropan-1-one] | < 100 nM
O=C([C@H](CO)c1ccccc1)N1CC(=C2CN(S(=O)(=O)c3cccnc3)C2)C1 [Compound 68, (S)-3-hydroxy-2-phenyl-1-(1′-(pyridin-3-ylsulfonyl)-1′,4′-dihydro-2H,2′H-[3,3′-diazetidinylidene]-1(4H)-yl)propane-1-one] | 300 to 1000 nM
O=C([C@H](CO)c1ccccc1)N1CC(=C2CN(S(=O)(=O)c3cccc4cccnc34)C2)C1 [Compound 69, (S)-3-hydroxy-2-phenyl-1-(1′-(quinolin-8-ylsulfonyl)-1′,4′-dihydro-2H,2′H-[3,3′-diazetidinylidene]-1(4H)-yl)propan-1-one] | < 100 nM
N#Cc1ccc(S(=O)(=O)N2CC(=C3CN(C(=O)[C@H](CO)c4ccccc4)C3)C2)nc1 [Compound 70, (S)-6-((1′-(3-hydroxy-2-phenylpropionyl)-1′,4′-dihydro-2H,2′H-[3,3′-diazetidinylidene]-1(4H)-yl)sulfonyl)nicotinonitrile] | 300 to 1000 nM
O=C(C(CO)c1ccc(C(F)F)cc1)N1CC(=C2CN(S(=O)(=O)c3ccccn3)C2)C1 (stereo not shown) [Compound 71, 2-(4-(difluoromethyl)phenyl)-3-hydroxy-1-(1′-(pyridin-2-ylsulfonyl)-1′,4′-dihydro-2H,2′H-[3,3′-diazetidinylidene]-1(4H)-yl)propan-1-one] | < 100 nM
CCOc1ccc(S(=O)(=O)N2CC(=C3CN(C(=O)[C@H](CO)c4ccccc4)C3)C2)nc1 [Compound 72, (S)-1-(1′-((5-ethoxypyridin-2-yl)sulfonyl)-1′,4′-dihydro-2H,2′H-[3,3′-diazetidinylidene]-1(4H)-yl)-3-hydroxy-2-phenylpropan-1-one] | < 100 nM
O=C(C(CO)c1ccc(Cl)cc1)N1CC(=C2CN(S(=O)(=O)c3ccccn3)C2)C1 (stereo not shown) [Compound 75, 2-(4-chlorophenyl)-3-hydroxy-1-(1′-(pyridin-2-ylsulfonyl)-1′,4′-dihydro-2H,2′H-[3,3′-diazetidinylidene]-1(4H)-yl)propan-1-one] | 101 to 300 nM

Source: patent publication US20250145635A1, “COMPOUND CONTAINING BIS(AZANYLYLIDENE) SULFONYL STRUCTURE AND USE THEREOF IN MEDICINE” (SCINNOHUB PHARMACEUTICAL CO., LTD., priority 2021, published 2025)
